From US20230218544A1, “TREATMENT METHODS AND FORMULATIONS” (Curtin University, priority 2020, published 2023)
“Also recorded” adds a separate entry of the source.

Assays:
[1] = tested on: HEI-OC1 cells; test: Cisplatin cytotoxicity in inner ear sensory cells; assay type: cell-based, mouse; details: concentration used in subsequent experiments to ensure IC 50; 24 hours; read-out: IC 50 on cell viability
Method: House Ear Institute-Organ of Corti 1 (HEI-OC1) cells provided by Y J. Seo (Yonsei University, wonju, Korea) and F. Kalinec, (House Ear Institute, (Los Angeles, Calif., USA) were cultured in high-glucose Dulbecco's modified Eagle's medium (DMEM; Lonza, USA) supplemented with 10% Fetal bovine serum (FBS; Gibco BRL, USA) and 50 U/ml gamma-interferon (PEPRO TECH, INC. USA) without any antibiotics in a permissive condition (33° C., 10% CO2). For the non-permissive condition, cultured cells were cultured in the permissive condition for a certain period (Kalinec G, Thein P, Park C, Kalinec F. HEI-OC1 cells as a model for investigating drug cytotoxicity. […] Growth curves were performed to identify the growth patterns of cells in each condition. Cells cultured at 33° C., in a 10% CO2 atmosphere condition were recorded on day 0 after cell counting before seeding. Cells were recovered stripped daily from the cell dish and enumerated. This was done then, cell counted, confirmed for up to 14 days. Following the shift, cells were enumerated daily for 14 days. As explained above, HEI-OC1 cells were cultured in permissive conditions (33° C., 10% CO2) until day 5 and then transferred to the non-permissive condition (39° C., 5% CO2).
High-glucose DMEM supplemented with 0.5% FBS was used. […]

[2] = tested on: spiral ganglion neurons (SGNs); test: Light sheet microscopy quantification of spiral ganglion neuron (SGN) density in cochlea; assay type: in vivo, guinea pig
Method: Harvested temporal bones were immersed in 4% para-formaldehyde overnight at 4° C., before being decalcified for 14-18 days in 10% EDTA. They were then rinsed with Sorenson's buffer, dehydrated in a series of 50, 75, 90 and 100% ethanol (8-12 h each step), and immersed in Spalteholz solution for 24 h, to render the sample optically transparent. Samples were then imaged using a custom light-sheet fluorescence microscope (LSFM), based on the setup described by Santi et al. (2009) (Santi P A. Light Sheet Fluorescence Microscopy. J Histochem Cytochem. 2010; 59(2):129-138. doi:10.1369/0022155410394857), where ‘virtual slices’ of the inner ear were imaged at […] steps in the axial plane, detailed in Brown et al. (2016) (Brown D J, Pastras C J, Curthoys I S, Southwell C S, Roon L V. Endolymph movement visualized with light sheet fluorescence microscopy in an acute hydrops model. Hearing Res. 2016; 339 (PloS one 7 2012):112-124. doi:10.1016/j.heares.2016.06.007), providing a ‘z-stack’ of between 300 and 1000 virtual slice images. LSFM images were analyzed by a blinded investigator, for later comparison to the functional data and treatment. LSFM z-stacks were analyzed using ImageJ software, with 3D volumes segmented for volume analysis using the Segmentation3D plugin. TIFF files collected from the light sheet microscope were reconstructed into representative 3D images. […]

[3] = tested on: guinea pig model of ototoxicity; test: Experimental Example 3: round window CAP thresholds after kanamycin and furosemide ototoxicity; assay type: in vivo, guinea pigs (Cavia porcellus)
From the text: The animal was then removed from isoflurane, and allowed to recover slowly under close observation. […] Animals were then deeply anaesthetized, and euthanized via cardiac fixation for temporal bones harvesting.

[4] = tested on: HEI-OC1 cells; test: Cell viability with cisplatin and probucol (oto-protection); assay type: cell-based, mouse
Method: House Ear Institute-Organ of Corti 1 (HEI-OC1) cells provided by Y J. Seo (Yonsei University, wonju, Korea) and F. Kalinec, (House Ear Institute, (Los Angeles, Calif., USA) were cultured in high-glucose Dulbecco's modified Eagle's medium (DMEM; Lonza, USA) supplemented with 10% Fetal bovine serum (FBS; Gibco BRL, USA) and 50 U/ml gamma-interferon (PEPRO TECH, INC. USA) without any antibiotics in a permissive condition (33° C., 10% CO2). For the non-permissive condition, cultured cells were cultured in the permissive condition for a certain period (Kalinec G, Thein P, Park C, Kalinec F. HEI-OC1 cells as a model for investigating drug cytotoxicity. Hearing Res. 2016; 335:105-117. doi:10.1016/j.heares.2016.02.019). Growth curves were performed to identify the growth patterns of cells in each condition. Cells cultured at 33° C., in a 10% CO2 atmosphere condition were recorded on day 0 after cell counting before seeding. Cells were recovered stripped daily from the cell dish and enumerated. This was done then, cell counted, confirmed for up to 14 days. Following the shift, cells were enumerated daily for 14 days. As explained above, HEI-OC1 cells were cultured in permissive conditions (33° C., 10% CO2) until day 5 and then transferred to the non-permissive condition (39° C., 5% CO2).
Cisplatin was from Sigma Chemical Co. (St. Louis, Mo., USA). […]

[5] = tested on: guinea pig model of ototoxicity; test: Experimental Example 4: CAP thresholds in ototoxicity animal model with kanamycin and furosemide; assay type: in vivo, guinea pigs (Cavia porcellus); details: for difference of CAP between ototoxicity and ototoxicity with probucol sides: day 14 post-treatment
Method: Experiments were performed on 9 adult guinea pigs (Cavia porcellus) of either sex with body weights between 250 and 350 g. All experimental procedures were approved by The University of Curtin Animal Ethics Committee.
For all experiments, each animal first underwent a recovery surgery at day ‘zero’ to inject.
For the recovery surgery, each animal was given a 0.05 ml subcutaneous injection of Temgesic (Buprenorpherine; Reckitt Benckiser, Auckland NZ) and 0.1 ml of Atrosine (0.6 mg/ml atropine sulphate; Apex Laboratories, NSW, Australia) before being anesthetized using isoflurane (2-5%). The temperature was maintained using an electric heating pad, and lignocaine was used as a local anesthetic. While using aseptic techniques, animals were mounted on a custom ear-bar setup, and the left bulla surgically opened via a dorsal approach providing a view of the left round window, using aseptic techniques. Before the drug administrations, the AgCl ball-electrode (reference in the neck) was placed on the round window for recording compound action potential (CAP) responses (Brown D J, Chihara Y, Curthoys I S, Wang Y, Bos M. Changes in cochlear function during acute endolymphatic hydrops development in guinea pigs. Hearing Res. 2013; 296 (J. Neurophysiol. 101 2009):96-106. doi:10.1016/j.heares.2012.12.004; Brown D J, Pastras C J, Curthoys I S, Southwell C S, Roon L V. Endolymph movement visualized with light sheet fluorescence microscopy in an acute hydrops model. Hearing Res. 2016; 339 (PloS one 7 2012):112-124. doi:10.1016/j.heares.2016.06.007; and Brown D J, Sokolic L, Fung A, Pastras C J. Response of the Inner Ear to Lipopolysaccharide Introduced Directly into Scala Media. Hearing Res. 2018; 370 (Otol Neurotol 32 2011):105-112. doi:10.1016/j.heares.2018.10.007).
The bulla opening was resealed with dental cement before the overlying skin was sutured. The animal was then removed from isoflurane, and allowed to recover slowly under close observation. During recovery, the animal was given a subsequent 0.05 ml i.p. dose of Temgesic, along with an oral delivery of 1 ml Ibuprofen (40 mg/ml; Reckitt Benckiser Pty Ltd, Australia). Animals were then allowed to recover for 14 days (±3) days. For following CAP threshold measurements after 14 days, the bulla was re-opened with same procedures. Thereafter, animals were re-anaesthetized and mounted on the ear-bars, for a repeated measure of CAP thresholds described previously. Animals were then deeply anaesthetized, and euthanized via cardiac fixation for temporal bones harvesting.
The standard deviation of CAP thresholds was measured at day 0.

Compound	IC50 [1]	density of SGNs in the basal turn versus ototoxicity alone group ([2]; basal turn of cochlea, significant)	effect on hair cell damages by ototoxicity drugs ([2]; guinea pig, in vivo)	mean difference between left and right CAP thresholds ([3]; 2 kHz, insignificant)	hearing loss (CAP thresholds compared to baseline), probucol-treated cochleae ([3]; about 100 μL probucol-gel on round window, after kanamycin and furosemide, significant at all frequencies except 6 and 10 kHz)	average CAP threshold compared to non-probucol treated cochlea ([3]; at 6 kHz and 10 kHz)	cell survival compared with control ([4]; probucol 20 μM and 50 μM with cisplatin, 24 h)	cellular mitogenesis compared with control ([4]; probucol 100 μM, attributed to high concentration of vehicle DMSO)	difference of CAP between ototoxicity and ototoxicity with probucol sides ([5]; 6 kHz, probucol injected into bulla around RWM)	difference of CAP between ototoxicity and ototoxicity with probucol sides ([5]; 10 kHz)	difference of CAP between ototoxicity and ototoxicity with probucol sides ([5]; 14 kHz)	hearing protection in the ototoxicity guinea pig model ([5]; guinea pig, in vivo)	thresholds of hearing (CAP) versus control side ([5]; significant only at 6 and 10 kHz)
N.N.[Cl][Pt][Cl] [cisplatin]	~20 µM	–	–	–	–	–	–	–	–	–	–	–	–
CC(C)(Sc1cc(C(C)(C)C)c(O)c(C(C)(C)C)c1)Sc1cc(C(C)(C)C)c(O)c(C(C)(C)C)c1 [probucol, 2,6-ditert-butyl-4-[2-(3,5-ditert-butyl-4-hydroxyphenyl)sulfanylpropan-2-ylsulfanyl]phenol]	–	significantly larger density; also recorded: kept not to be injured	protective effect	3 dB	11-40 dB	significantly lower	promoted the cell survival	significant decrease in cellular mitogenesis	23.4±9.49 dB	21.89 ± 7.72 dB	16.56±4.15 dB	hearing protection effect	better thresholds of hearing
